Experimental findings from ChEMBL document CHEMBL1150336, “Synthesis and antibacterial activity of novel pyrido[1,2,3-de][1,4]benzoxazine-6-carboxylic acid derivatives carrying the 3-cyclopropylaminomethyl-4-substituted-1-pyrrolidinyl group as a C-10 substituent” (J Med Chem, 2008) are described below.

One data set concerns Klebsiella pneumoniae. The data set is described as follows: Antibacterial activity against Klebsiella pneumoniae IID5209 after 18 hrs by agar dilution method. In kind it is functional. On the technique in general: Agar dilution tests growth on a series of plates holding different concentrations.
A further data set deals with Escherichia coli. The data set is described as follows: Antibacterial activity against Escherichia coli NIHJ JC2 after 18 hrs by agar dilution method. The class given is functional. Particulars: NIHJ JC2, 18 h.
Data set [1] has as its system Enterococcus faecalis. The data set is described as follows: Antibacterial activity against Enterococcus faecalis IID682 after 18 hrs by agar dilution method. The class given is functional.
In another data set the test system is Streptococcus pyogenes. Nature of the data set: Antibacterial activity against Streptococcus pyogenes IID692 after 18 hrs by agar dilution method. In kind it is functional.
Data set [2] has as its system Staphylococcus aureus. Nature of the data set: Antibacterial activity against Staphylococcus aureus Smith after 18 hrs by agar dilution method. The class given is functional.
Another data set relates to Haemophilus influenzae. Nature of the data set: Antibacterial activity against Haemophilus influenzae IID983 after 18 hrs by agar dilution method. The class given is functional.
In data set [3] the test system is Streptococcus pneumoniae. The data set is described as follows: Antibacterial activity against Streptococcus pneumoniae type 3 after 18 hrs by agar dilution method. The class given is functional.
Another data set deals with Pseudomonas aeruginosa. Nature of the data set: Antibacterial activity against Pseudomonas aeruginosa IID1210 after 18 hrs by agar dilution method. In kind it is functional.
The subject of data set [4] is Staphylococcus aureus. The data set is described as follows: Antibacterial activity against quinoline-resistant Staphylococcus aureus OITI MR1-1002 isolate after 18 hrs by agar dilution method. In kind it is functional.
In data set [5] the test system is Streptococcus pneumoniae. Nature of the data set: Antibacterial activity against quinoline-resistant Streptococcus pneumoniae no.55 isolate after 18 hrs by agar dilution method. The class given is functional.
Data set [6] has as its system Enterococcus faecalis. The data set is described as follows: Antibacterial activity against quinoline-resistant Enterococcus faecalis No.15 isolate after 18 hrs by agar dilution method. The class given is functional.
For data set [7], the system named is Enterococcus faecalis. The data set is described as follows: Antibacterial activity against vancomycin-resistant Enterococcus faecalis KU1856 after 18 hrs by agar dilution method. The class given is functional.
The subject of data set [8] is Enterococcus faecalis. Nature of the data set: Antibacterial activity against vancomycin-resistant Enterococcus faecalis KU1866 after 18 hrs by agar dilution method. The class given is functional.
Data set [9] deals with Mus musculus. The data set is described as follows: Toxicity in ICR mouse assessed as mortality administered as single dose at 100 mg/kg, iv after 7 days. More on the design: dose 100 mg/kg, route intravenous. Particulars: in vivo, 168 h. The class given is organism-based.
Data set [10] concerns Mus musculus. The data set is described as follows: Toxicity in ICR mouse assessed as mortality administered as single dose at 200 mg/kg, iv after 7 days. The class given is organism-based. More on the design: dose 200 mg/kg, route intravenous. Particulars: in vivo, 168 h.
In data set [11] the test system is Mus musculus. The data set is described as follows: Toxicity in intracerebroventricularly dosed ICR mouse assessed as induction of convulsion after 2 hrs in absence of fenbufen. In kind it is organism-based. As to conditions: in vivo, icv_or_intrathecal.
Data set [12] relates to Mus musculus. Nature of the data set: Toxicity in intracerebroventricularly dosed ICR mouse assessed as induction of convulsion after 2 hrs in presence of fenbufen. In kind it is organism-based. As to conditions: in vivo, icv_or_intrathecal.
Data set [13] concerns Mus musculus. Nature of the data set: Phototoxicity in orally dosed ICR mouse assessed as skin erythema after 72 hrs. In kind it is organism-based. As to conditions: in vivo, po.
Data set [14] can be described thus: Inhibition of Staphylococcus aureus MS5935 wild type topoisomerase 4-mediated decatenation activity.
Data set [15] can be described thus: Inhibition of quinoline-resistant Staphylococcus aureus MS5935 topoisomerase 4-mediated decatenation activity.
For data set [16], the system named is Staphylococcus aureus. Nature of the data set: Antibacterial activity against quinoline-resistant wild type Staphylococcus aureus MS5935 after 18 hrs by agar dilution method. In kind it is functional.
The subject of data set [17] is Staphylococcus aureus. The data set is described as follows: Antibacterial activity against quinoline-resistant Staphylococcus aureus MS5935 containing single grlA mutation after 18 hrs by agar dilution method. The class given is functional.
For data set [18], the system named is Staphylococcus aureus. Nature of the data set: Antibacterial activity against quinoline-resistant Staphylococcus aureus MS5935 containing single grlA and single gyrA mutation after 18 hrs by agar dilution method. The class given is functional.
Data set [19] has as its system Staphylococcus aureus. Nature of the data set: Antibacterial activity against quinoline-resistant Staphylococcus aureus MS5935 containing double grlA and single gyrA mutation after 18 hrs by agar dilution method. The class given is functional.
Data set [20] deals with Staphylococcus aureus. The data set is described as follows: Antibacterial activity against quinoline-resistant Staphylococcus aureus MS5935 containing double grlA and double gyrA mutation after 18 hrs by agar dilution method. In kind it is functional.

Molecules are shown by their SMILES. In brackets after ≈: the same amount, converted by molar mass.

One may read the IC50 as the concentration that inhibits the measured activity by half. A high value points to a need for much substance.

Consider `C[C@H]1COc2c(N3C[C@H](CNC4CC4)[C@@H](F)C3)c(F)cc3c(=O)c(C(=O)O)cn1c23`, for which the MIC against Klebsiella pneumoniae came to 0.125 µg/mL (≈ 0.298 µM); with Escherichia coli, 0.016 µg/mL (≈ 0.0381 µM); against Enterococcus faecalis [1] it was 0.125 µg/mL (≈ 0.298 µM); with Streptococcus pyogenes it was 0.125 µg/mL (≈ 0.298 µM); against Staphylococcus aureus [2], 0.016 µg/mL (≈ 0.0381 µM); against Haemophilus influenzae, 0.008 µg/mL (≈ 0.0191 µM). Moreover, the MIC stood at 0.063 µg/mL (≈ 0.15 µM) against Streptococcus pneumoniae [3]; 4 µg/mL (≈ 9.54 µM) in the data set with Pseudomonas aeruginosa; 16 µg/mL (≈ 38.1 µM) in the data set on Staphylococcus aureus [4]; 2 µg/mL (≈ 4.77 µM) with Streptococcus pneumoniae [5]; 4 µg/mL (≈ 9.54 µM) against Enterococcus faecalis [6]; 2 µg/mL (≈ 4.77 µM) in the data set with Enterococcus faecalis [7]. In the data set on Enterococcus faecalis [8], this molecule had an MIC of 4 µg/mL (≈ 9.54 µM).

As to `C[C@H]1CN(c2c(F)cc3c(=O)c(C(=O)O)cn4c3c2OC[C@@H]4C)C[C@@H]1CNC1CC1`, the MIC was 0.125 µg/mL (≈ 0.301 µM) with Klebsiella pneumoniae; 0.016 µg/mL (≈ 0.0385 µM) with Escherichia coli; 0.031 µg/mL (≈ 0.0746 µM) in the data set on Enterococcus faecalis [1]; 0.016 µg/mL (≈ 0.0385 µM) with Streptococcus pyogenes; 0.002 µg/mL (≈ 0.00481 µM) in the data set with Staphylococcus aureus [2]; 0.008 µg/mL (≈ 0.0193 µM) with Haemophilus influenzae. Besides, the MIC was found to be 0.016 µg/mL (≈ 0.0385 µM) with Streptococcus pneumoniae [3]; 4 µg/mL (≈ 9.63 µM) with Pseudomonas aeruginosa; 2 µg/mL (≈ 4.81 µM) against Staphylococcus aureus [4]; 0.5 µg/mL (≈ 1.2 µM) with Streptococcus pneumoniae [5]; 1 µg/mL (≈ 2.41 µM) with Enterococcus faecalis [6]; 1 µg/mL (≈ 2.41 µM) with Enterococcus faecalis [7]. Besides, in the data set on Enterococcus faecalis [8], the MIC was 1 µg/mL (≈ 2.41 µM). The Activity entry was “Non-toxic” in the data set with Mus musculus [9], “Toxic” in the data set with Mus musculus [10], more than 40 µg in the data set on Mus musculus [11] and more than 40 µg with Mus musculus [12].

Turning to `O=C(O)c1cn2c3c(c(N4C[C@H](CNC5CC5)[C@@H](F)C4)c(F)cc3c1=O)OC[C@@H]2CF`, the MIC stood at 0.125 µg/mL (≈ 0.286 µM) in the data set on Klebsiella pneumoniae; 0.031 µg/mL (≈ 0.0709 µM) against Escherichia coli; 0.125 µg/mL (≈ 0.286 µM) in the data set with Enterococcus faecalis [1]; 0.125 µg/mL (≈ 0.286 µM) in the data set on Streptococcus pyogenes; 0.016 µg/mL (≈ 0.0366 µM) against Staphylococcus aureus [2]; 0.008 µg/mL (≈ 0.0183 µM) in the data set on Haemophilus influenzae. Besides, the MIC was determined as 0.063 µg/mL (≈ 0.144 µM) in the data set with Streptococcus pneumoniae [3]; 4 µg/mL (≈ 9.14 µM) in the data set on Pseudomonas aeruginosa; 16 µg/mL (≈ 36.6 µM) against Staphylococcus aureus [4]; 2 µg/mL (≈ 4.57 µM) with Streptococcus pneumoniae [5]; 4 µg/mL (≈ 9.14 µM) against Enterococcus faecalis [6]; 2 µg/mL (≈ 4.57 µM) with Enterococcus faecalis [7]. In the data set with Enterococcus faecalis [8], this molecule returned an MIC of 4 µg/mL (≈ 9.14 µM).

As for `C[C@@H]1CN(c2c(F)cc3c(=O)c(C(=O)O)cn4c3c2OC[C@@H]4CF)C[C@@H]1CNC1CC1`, the MIC turned out to be 0.063 µg/mL (≈ 0.145 µM) in the data set on Klebsiella pneumoniae; 0.016 µg/mL (≈ 0.0369 µM) against Escherichia coli; 0.063 µg/mL (≈ 0.145 µM) against Enterococcus faecalis [1]; 0.031 µg/mL (≈ 0.0715 µM) with Streptococcus pyogenes; 0.008 µg/mL (≈ 0.0185 µM) against Staphylococcus aureus [2]; 0.004 µg/mL (≈ 0.00923 µM) with Haemophilus influenzae. For the same molecule, the MIC in the data set with Streptococcus pneumoniae [3] came out at 0.016 µg/mL (≈ 0.0369 µM); against Pseudomonas aeruginosa, 2 µg/mL (≈ 4.61 µM); against Staphylococcus aureus [4], 0.5 µg/mL (≈ 1.15 µM); against Streptococcus pneumoniae [5], 0.125 µg/mL (≈ 0.288 µM); in the data set with Enterococcus faecalis [6] it was 1 µg/mL (≈ 2.31 µM); against Enterococcus faecalis [7] it was 1 µg/mL (≈ 2.31 µM). This molecule displayed an MIC in the data set with Enterococcus faecalis [8] of 1 µg/mL (≈ 2.31 µM). Further, the Activity result in the data set with Mus musculus [10] is “Toxic”; in the data set on Mus musculus [11], 20 µg; in the data set on Mus musculus [12], 10 µg; with Mus musculus [13], “Non-toxic”.

As to `O=C(O)c1cn(C2CC2)c2cc(N3CCNCC3)c(F)cc2c1=O` [CIPROFLOXACIN], the MIC with Klebsiella pneumoniae was 0.004 µg/mL (≈ 0.0121 µM); in the data set on Escherichia coli, not above 0.001 µg/mL; against Enterococcus faecalis [1] it was 0.5 µg/mL (≈ 1.51 µM); against Streptococcus pyogenes it was 0.5 µg/mL (≈ 1.51 µM); in the data set on Staphylococcus aureus [2] it was 0.25 µg/mL (≈ 0.754 µM); in the data set with Haemophilus influenzae it was 0.008 µg/mL (≈ 0.0241 µM). Further, the MIC against Staphylococcus aureus [4], against Streptococcus pneumoniae [5], against Enterococcus faecalis [6], in the data set on Enterococcus faecalis [7] and in the data set with Enterococcus faecalis [8] was 64 µg/mL (≈ 193 µM) throughout.

As for `C[C@H]1COc2c(N3CCN(C)CC3)c(F)cc3c(=O)c(C(=O)O)cn1c23.C[C@H]1COc2c(N3CCN(C)CC3)c(F)cc3c(=O)c(C(=O)O)cn1c23.O` [LEVOFLOXACIN], the MIC was 0.016 µg/mL in the data set with Klebsiella pneumoniae; not above 0.001 µg/mL against Escherichia coli; 1 µg/mL in the data set with Enterococcus faecalis [1]; 0.5 µg/mL in the data set with Streptococcus pyogenes; 0.125 µg/mL in the data set on Staphylococcus aureus [2]; 0.008 µg/mL in the data set with Haemophilus influenzae. Moreover, the MIC in the data set with Pseudomonas aeruginosa was 0.5 µg/mL; against Staphylococcus aureus [4], more than 128 µg/mL; against Enterococcus faecalis [6] it was 64 µg/mL; against Enterococcus faecalis [7], 32 µg/mL; against Enterococcus faecalis [8], 32 µg/mL; against Staphylococcus aureus [16] it was 0.125 µg/mL. Also, the MIC with Staphylococcus aureus [17] was 0.5 µg/mL; with Staphylococcus aureus [18], 8 µg/mL; in the data set on Staphylococcus aureus [19], 32 µg/mL; in the data set on Staphylococcus aureus [20], more than 128 µg/mL. For the same molecule, the half-inhibitory concentration (IC50) in data set [14] stood at 5.44 µg/mL; in data set [15], 319 µg/mL.
